The values that follow come from US10183952B2, “Thienopyrroles as histone demethylase inhibitors” (ISTITUTO EUROPEO DI ONCOLOGIA S.R.L., priority 2014, dated 2019).

SMILES strings stand for the structures. Structures can show the parent of a compound that is named as a salt.

For this experiment, the target named is human recombinant KDM1A/CoREST protein (Homo sapiens, UniProt O60341). The experiment is described as follows: Assay of enzyme inhibition of KDM1A (LSD1), TR-FRET. Background: In TR-FRET formats the signal depends on donor and acceptor labels being close together.
Method: The intensity of the light emission is proportional to the level of biotinylated reaction product. The complex of human recombinant KDM1A/CoREST protein was produced in E. coli as separate proteins and co-purified as previously described.
Demethylase reaction was started by the addition of 50 nM histone H3K4 monomethylated.
The resulting mixture was incubated in the dark for 1 h at RT.
The IC50 was calculated using GraphPad Software.
By IC50 is commonly meant the concentration needed to halve the response being measured. Consider `Cn1c(C(=O)Nc2ccccc2COc2ccc(NC3CCNCC3)cc2)cc2sccc21` [Example 39, 4-methyl-N-[2-[[4-(4-piperidylamino)phenoxy]methyl]phenyl]thieno[3,2-b]pyrrole-5-carboxamide; 2,2,2-trifluoroacetic acid], for which the IC50 is under 10 µM.
Take `COCc1cccc(NC(=O)c2cc3ccsc3n2C)c1` [Example 48, N-[3-(methoxymethyl)phenyl]-6-methyl-thieno[2,3-b]pyrrole-5-carboxamide]: the IC50 is under 25 µM.
Then `CCn1c(C(=O)Nc2ccccc2COc2ccc(OC3CCNCC3)cc2)cc2ccsc21` [Example 66, 6-Ethyl-N-[2-[[4-(4-piperidyloxy)phenoxy]methyl]phenyl]thieno[2,3-b]pyrrole-5-carboxamide hydrochloride], with under 10 µM; and `Cn1c(C(=O)Nc2cccc(COc3ccc(OC4CCNC4)cc3)c2)cc2sccc21` (stereo not shown) [Example 32, 4-methyl-N-[3-[(4-pyrrolidin-3-yloxyphenoxy)methyl]phenyl]thieno[3,2-b]pyrrole-5-carboxamide hydrochloride], with under 10 µM; and `Cn1c(C(=O)Nc2ccccc2COc2ccc(CN3CCC4(CCNCC4)C3)cc2)cc2sccc21` [Example 41, N-[2-[[4-(2,8-diazaspiro[4.5]decan-2-ylmethyl)phenoxy]methyl]phenyl]-4-methyl-thieno[3,2-b]pyrrole-5-carboxamide], with under 10 µM.
The same measure for `Cn1c(C(=O)Nc2ccccc2COc2ccc(N3CCNCC3)cc2)cc2sccc21` [Example 37, 4-methyl-N-[2-[(4-piperazin-1-ylphenoxy)methyl]phenyl]thieno[3,2-b]pyrrole-5-carboxamide]: under 10 µM; for `Cn1c(C(=O)Nc2ccccc2COc2ccc(OC3CCNCC3)cc2)cc2ccsc21` [Example 67, 6-Methyl-N-[2-[[4-(4-piperidyloxy)phenoxy]methyl]phenyl]thieno[2,3-b]pyrrole-5-carboxamide]: under 10 µM; for `Cn1c(C(=O)Nc2cccc(COc3ccc(OCC4CNC4)cc3)c2)cc2sccc21` [Example 30, N-[3-[[4-(azetidin-3-ylmethoxy)phenoxy]methyl]phenyl]-4-methyl-thieno[3,2-b]pyrrole-5-carboxamide]: under 10 µM.
For the molecule `Cn1c(C(=O)Nc2cccc(COc3cccc(OC4CCNCC4)c3)c2)cc2sccc21` [Example 58, 4-Methyl-N-[3-[[3-(4-piperidyloxy)phenoxy]methyl]phenyl]thieno[3,2-b]pyrrole-5-carboxamide hydrochloride], the IC50 was under 10 µM.
As for `COCc1cccc(NC(=O)c2cc3sccc3n2C)c1COc1ccc(OC[C@@H]2CCNC2)cc1` [Example 42, N-[3-(methoxymethyl)-2-[[4-[[(3R)-pyrrolidin-3-yl]methoxy]phenoxy]methyl]phenyl]-4-methyl-thieno[3,2-b]pyrrole-5-carboxamide hydrochloride], the IC50 was under 10 µM.
With `CSCc1cccc(NC(=O)c2cc3sccc3n2C)c1` [Example 46, 4-methyl-N-[3-(methylsulfanylmethyl)phenyl]thieno[3,2-b]pyrrole-5-carboxamide], the IC50 was under 10 µM.
Consider `CCn1c(C(=O)Nc2cccc(COC)c2)cc2sccc21` [Example 45, 4-ethyl-N-[3-(methoxymethyl)phenyl]thieno[3,2-b]pyrrole-5-carboxamide], for which the IC50 was under 10 µM.
Then `CCn1c(C(=O)Nc2ccccc2COc2cccc(OC3CCNCC3)c2)cc2ccsc21` [Example 65, 6-Ethyl-N-[2-[[3-(4-piperidyloxy)phenoxy]methyl]phenyl]thieno[2,3-b]pyrrole-5-carboxamide], with under 10 µM.
With `Cn1c(C(=O)Nc2cccc(COc3ccncc3)c2)cc2sccc21` [Example 22, 4-methyl-N-[3-(4-pyridyloxymethyl)phenyl]thieno[3,2-b]pyrrole-5-carboxamide], the IC50 is under 10 µM.
For the molecule `Cn1c(C(=O)Nc2ccccc2C(=O)Nc2ccc(OC3CCNCC3)cc2)cc2sccc21` [Example 36, 4-methyl-N-[2-[[4-(4-piperidyloxy)phenyl]carbamoyl]phenyl]thieno[3,2-b]pyrrole-5-carboxamide], the half-inhibitory concentration (IC50) is under 10 µM.
Regarding `Cn1c(C(=O)Nc2ccccc2COc2cccc(OC3CCNCC3)c2)cc2ccsc21` [Example 64, 6-Methyl-N-[2-[[3-(4-piperidyloxy)phenoxy]methyl]phenyl]thieno[2,3-b]pyrrole-5-carboxamide], the IC50 was under 10 µM.
Take `Cn1c(C(=O)Nc2cccc(COc3ccc(OC4CCCNCC4)cc3)c2)cc2sccc21` (stereo not shown) [Example 33, N-[3-[[4-(azepan-4-yloxy)phenoxy]methyl]phenyl]-4-methyl-thieno[3,2-b]pyrrole-5-carboxamide]: the IC50 is under 10 µM.
Then `COCc1cccc(NC(=O)c2cc3sccc3n2C)c1COc1ccc(OC2CCNCC2)cc1` [Example 43, N-[3-(methoxymethyl)-2-[[4-(4-piperidyloxy)phenoxy]methyl]phenyl]-4-methyl-thieno[3,2-b]pyrrole-5-carboxamide hydrochloride], with under 10 µM; and `CNCCCOc1ccc(OCc2ccccc2NC(=O)c2cc3sccc3n2C)cc1` [Example 31, 4-methyl-N-[2-[[4-(3-methylaminopropoxy)phenoxy]methyl]phenyl]thieno[3,2-b]pyrrole-5-carboxamide hydrochloride], with under 10 µM; and `COCc1cccc(NC(=O)c2cc3sccc3n2C)c1COc1ccc(OC2CCCNCC2)cc1` (stereo not shown) [Example 44, N-[2-[[4-(azepan-4-yloxy)phenoxy]methyl]-3-(methoxymethyl)phenyl]-4-methyl-thieno[3,2-b]pyrrole-5-carboxamide hydrochloride], with under 10 µM.
As to `Cn1c(C(=O)Nc2cccc(COc3ccc(O[C@H]4CC[C@H](N)CC4)cc3)c2)cc2sccc21` [Example 29, N-[3-[[4-(trans-4-aminocyclohexoxy)phenoxy]methyl]phenyl]-4-methyl-thieno[3,2-b]pyrrole-5-carboxamide], the IC50 was under 10 µM.
Consider `Cn1c(C(=O)Nc2cccc(COc3ccc(OCC4CCNCC4)cc3)c2)cc2sccc21` [Example 26, 4-methyl-N-[3-[[4-(4-piperidylmethoxy)phenoxy]methyl]phenyl]thieno[3,2-b]pyrrole-5-carboxamide], for which the IC50 is under 10 µM.
On to `Cn1c(C(=O)Nc2cccc(COc3ccc(CNC(=N)N)cc3)c2)cc2sccc21` [Example 59, N-[3-[[4-(Guanidinomethyl)phenoxy]methyl]phenyl]-4-methyl-thieno[3,2-b]pyrrole-5-carboxamide; trifluoroacetic acid], for which the IC50 was under 10 µM.
With `Cn1c(C(=O)Nc2ccccc2COc2ccc(OC3CCNCC3)cn2)cc2sccc21` [Example 56, 4-Methyl-N-[2-[[5-(4-piperidyloxy)-2-pyridyl]oxymethyl]phenyl]thieno[3,2-b]pyrrole-5-carboxamide hydrochloride], the IC50 is under 25 µM.
Consider `Cn1c(C(=O)Nc2ccccc2COc2ccc(O[C@@H]3C[C@H]4CC[C@@H](C3)N4)cc2)cc2sccc21` [Example 24, N-[2-[[4-[[(1S,5R)-8-azabicyclo[3.2.1]octan-3-yl]oxy]phenoxy]methyl]phenyl]-4-methyl-thieno[3,2-b]pyrrole-5-carboxamide], for which the IC50 was under 10 µM.
On to `CN1CCC(Oc2ccc(OCc3ccc(NC(=O)c4cc5sccc5n4C)cc3)cc2)CC1` [Example 23, 4-methyl-N-[4-[[4-[(1-methyl-4-piperidyl)oxy]phenoxy]methyl]phenyl]thieno[3,2-b]pyrrole-5-carboxamide], for which the 50% inhibitory concentration (IC50) is under 10 µM.
Consider `Cn1c(C(=O)Nc2cccc(COc3ccc(OC4CCCNC4)cc3)c2)cc2sccc21` (stereo not shown) [Example 28, 4-methyl-N-[3-[[4-(3-piperidyloxy)phenoxy]methyl]phenyl]thieno[3,2-b]pyrrole-5-carboxamide], for which the IC50 is under 10 µM.
As for `Cn1c(C(=O)Nc2cccc(COc3ccc(O[C@@H]4C[C@H]5CC[C@@H](C4)N5)cc3)c2)cc2sccc21` [Example 25, N-[3-[[4-[[(1S,5R)-8-azabicyclo[3.2.1]octan-3-yl]oxy]phenoxy]methyl]phenyl]-4-methyl-thieno[3,2-b]pyrrole-5-carboxamide], the IC50 was under 10 µM.
In the case of `Cn1c(C(=O)Nc2ccccc2OCC2CCNCC2)cc2sccc21` [Example 57, 4-Methyl-N-[2-(4-piperidylmethoxy)phenyl]thieno[3,2-b]pyrrole-5-carboxamide hydrochloride], the IC50 is under 50 µM.
As for `Cn1c(C(=O)Nc2ccccc2COc2ccc(OC3CCCNC3)cc2)cc2sccc21` (stereo not shown) [Example 27, 4-methyl-N-[2-[[4-(3-piperidyloxy)phenoxy]methyl]phenyl]thieno[3,2-b]pyrrole-5-carboxamide], the IC50 was under 10 µM.
Take `Cn1c(C(=O)Nc2ccccc2COc2ccc(OCC3CCNC3)cc2)cc2ccsc21` (stereo not shown) [Example 68, 6-Methyl-N-[2-[[4-(pyrrolidin-3-ylmethoxy)phenoxy]methyl]phenyl]thieno[2,3-b]pyrrole-5-carboxamide hydrochloride]: the half-maximal inhibitory concentration (IC50) is under 10 µM.
The same measure for `Cn1c(C(=O)Nc2ccccc2COc2ccc(CNC(=N)N)cc2)cc2sccc21` [Example 60, N-[2-[[4-(Guanidinomethyl)phenoxy]methyl]phenyl]-4-methyl-thieno[3,2-b]pyrrole-5-carboxamide; trifluoroacetic acid]: under 10 µM; for `Cn1c(C(=O)Nc2cccc(COc3ccc(O[C@H]4CC[C@@H](N)CC4)cc3)c2)cc2sccc21` [Example 34, N-[3-[[4-(cis-4-aminocyclohexoxy)phenoxy]methyl]phenyl]-4-methyl-thieno[3,2-b]pyrrole-5-carboxamide]: under 10 µM; for `Cn1c(C(=O)Nc2ccccc2COc2ccc(OCC3CNC3)cc2)cc2sccc21` [Example 40, N-[2-[[4-(azetidin-3-ylmethoxy)phenoxy]methyl]phenyl]-4-methyl-thieno[3,2-b]pyrrole-5-carboxamide; 2,2,2-trifluoroacetic acid]: under 10 µM.
